Laboratory results as given in publication PMC10683025, “Discovery of a Hydroxylamine-Based Brain-Penetrant EGFR Inhibitor for Metastatic Non-Small-Cell Lung Cancer” (Journal of Medicinal Chemistry, 2023).
Converted amounts (≈) assume the structure as drawn. Where two headings read alike, the source gives them in different places.

What was measured:
EGFRwt [1] = biological target: T1, EGFRwt (Homo sapiens, UniProt P00533); experiment: KINOMEScan KdELECT Kd determination; assay type: binding; settings: wt; read-out: EGFR Kd
T1 construct: purchased Eurofins DiscoverX (contract assay)
Procedure: (§3) In vitro kinase activity (inhibitor binding constants (Kd) and biochemical inhibition (IC50’s)) were assessed by Eurofins DiscoverX (Kd determinations) and Eurofins Cerep (biochemical IC50 determinations).

EGFR del E746_A750 = biological target: T2, EGFR del E746_A750 (Homo sapiens, UniProt P00533, DEL746-750); experiment: KINOMEScan KdELECT Kd determination; assay type: binding
T2 construct: purchased Eurofins DiscoverX (contract assay)
Procedure: as §3

EGFRwt [2] = biological target: T1, EGFRwt; experiment: KinaseProfiler enzymatic radiometric assay; assay type: biochemical; settings: wt, ATP 10 μM; read-out: EGFR IC50
Procedure: as §3

[3] = tested on: HCC827 (EGFR mutation = exon19del); experiment: CellTiter-Glo cell viability assay; assay type: cell-based, human; settings: Homo sapiens, HCC827; 72 h, unadjusted for FBS
Procedure: (§4) The NCI-H3255 cell line was obtained from CoBioer. […] NCI-H3255 cells were cultured in BEGM (Lonza) with 10% FBS. […] All cells were cultured in a humidified incubator with 5% CO2 at 37 °C.
(§5) Viability assays using A431, HCC827, NCI-H1975, NCI-H3255, Ba/F3 EGFR-del E746_A750/C797S, Ba/F3 EGFR-L858R/C797S, AU565, SK-BR-3, and ZR-75-30 cells were performed at Crown BioScience.

[4] = tested on: NCI-H3255 (EGFR mutation = L858R); experiment: CellTiter-Glo cell viability assay; assay type: cell-based, human; settings: Homo sapiens, NCI-H3255; 72 h, unadjusted for FBS
Procedure: as §4, §5

[5] = Lipophilicity, shake-flask; assay type: physicochemical; settings: 1-octanol/PBS; 1-octanol and PBS (pH 7.4); read-out: logD7.4
Procedure: Compound lipophilicity was determined by Pharmaron, Inc. using the shake-flask method with 1-octanol and PBS (pH 7.4). Each compound was assessed in duplicate (n = 2) at 1 μM in a 96-well plate shaken at 25 °C and 2000 rpm for 2 h. Samples were analyzed by liquid chromatography and tandem mass spectrometry (LC-MS/MS).

Solubility assay = assay type: physicochemical; settings: buffer, pH 7.4, aqueous buffer; read-out: Aq. Sol.
Procedure: Solubility was determined by Pharmaron, Inc. and each compound was assessed in duplicate (n = 2) by adding 15 μL of compound stock solution (10 mM in DMSO) into a 96-well plate along with 485 μL of buffer followed by shaking at 25 °C, 1100 rpm for 2 h. Wells were filtered, and samples (5 μL) were taken followed by dilution with an equal volume of DMSO (5 μL) and 490 μL of aqueous solution. Samples were analyzed by LC-MS/MS.

[6] = Metabolic stability in liver microsomes; assay type: in vitro ADME, human; settings: for Remaining Percentage: human LM
Procedure: (§6) Microsome stability was assessed in duplicate (n = 2) in the presence and absence of nicotinamide adenine dinucleotide phosphate (NADPH) with liver microsomes (0.5 mg/mL) from human (BD Gentest) and Sprague-Dawley rats (BD Gentest). Compounds were incubated in liver microsomes at 1 μM and samples (30 μL) were taken at 0.5, 15, 30, 45, and 60 min time points for analysis by LC-MS/MS. Hepatocyte stability was assessed in duplicate (n = 2) at a working cell density of 0.5 × 10^6 cells/mL with hepatocytes from human (BiolVT), Sprague-Dawley rat (BiolVT), cynomolgus monkey (RILD) or beagle dog (BiolVT). […] The in vitro half-life and intrinsic clearances were determined as previously described.[76]
(§7) In vitro half-life (in vitro t1/2) was determined from the slope value in [drawing 1] where k was determined by linear regression of the natural logarithm of the remaining percentage of the parent drug vs the incubation time curve.

[7] = Metabolic stability in liver microsomes; assay type: in vitro ADME, Sprague-Dawley rat; settings: for Remaining Percentage: rat LM
Procedure: as §6, §7

Plasma stability [8] = assay type: in vitro ADME, human; settings: human plasma; for t1/2: ∞ = no degradation
Procedure: (§1) Assessment of compounds to determine stability in incubations containing plasma of human (Pharmaron) and Sprague-Dawley rat (IPHASE) was performed by Pharmaron, Inc. using the compound […] approach. Compounds were assessed in duplicate (n = 2) and incubated in plasma at 5 μM and samples (50 μL) were taken at 0, 15, 30, 60, and 120 min time points for analysis by LC-MS/MS. Peak area ratios were determined from the extracted ion chromatogram and the percent compound remaining at each time point was calculated by the following equation: [drawing 2] where peak area ratiot min is the peak area ratio of control and test compound at t min and peak area ratio0 min is the peak area ratio of control and test compound at zero time point.

Plasma stability [9] = assay type: in vitro ADME, Sprague-Dawley rat; settings: rat plasma; for t1/2: ∞ = no degradation
Procedure: as §1

Caco-2 permeability = assay type: in vitro ADME; settings: human; for recovery at 2 h, 5 μM: Caco-2, Caco-2
Procedure: (§8) A 96-well HTS Transwell plate (Corning) was used for Caco-2 and MDCKII-MDR1 cell seeding. […] Plates were incubated at 37 °C for 2 h, and samples (50 μL) were taken at the beginning and end of the incubation in both the donor and acceptor wells with the assay run in duplicate (n = 2). Samples were analyzed by LC-MS/MS.
(§9) The efflux ratio was determined by using the following equation: [drawing 4] where Papp (B–A) indicates the apparent permeability in the basolateral to apical direction and Papp (A–B) indicates the apparent permeability in the apical to basolateral direction.

Caco-2 cells = experiment: Caco-2 permeability; assay type: in vitro ADME; settings: Caco-2
Procedure: as §8, §9

MDCKII-MDR1 permeability = assay type: in vitro ADME, canine; settings: dog, MDCK-MDR1, MDCKII-MDR1
Procedure: as §8, §9

MDCKII-MDR1 cells = experiment: MDCKII-MDR1 permeability; assay type: in vitro ADME, canine; settings: MDCKII-MDR1
Procedure: as §8, §9

MDR1 = experiment: MDCKII-MDR1 permeability; assay type: in vitro ADME, canine; settings: dog, MDCK-MDR1
Procedure: as §8, §9

[10] = Plasma protein binding by equilibrium dialysis; assay type: in vitro ADME
Procedure: (§2) Plasma protein binding and brain tissue binding were determined by Pharmaron, Inc. using the equilibrium dialysis method. […] Following incubation, the samples were analyzed by LC-MS/MS and the concentrations of the compounds were determined in the buffer and plasma solution chambers.

EGFRL858R [11] = biological target: T3, EGFRL858R (Homo sapiens, UniProt P00533, L858R); experiment: KINOMEScan KdELECT Kd determination; assay type: binding; parameters: purchased Eurofins DiscoverX (contract assay)
Procedure: as §3

EGFRL858R [12] = biological target: T3, EGFRL858R; experiment: KinaseProfiler enzymatic radiometric assay; assay type: biochemical; parameters: purchased Eurofins Cerep (KinaseProfiler, contract assay); settings: ATP 10 μM, read-out: EGFR IC50
Procedure: as §3

[13] = Metabolic stability in hepatocytes; assay type: in vitro ADME, human; settings: for Remaining Percentages: human hepatocytes
Procedure: as §6, §7

[14] = Metabolic stability in hepatocytes; assay type: in vitro ADME, Sprague-Dawley rat; settings: rat hepatocytes
Procedure: as §6, §7

[15] = Plasma protein binding by equilibrium dialysis; assay type: in vitro ADME, mouse
Procedure: as §2

[16] = Brain tissue binding by equilibrium dialysis; assay type: in vitro ADME; settings: rat
Procedure: as §2

[17] = parameters: method as in PMID 33028591; settings: single oral dose of 10 mg/kg in Han Wistar rats ref 18; cited from earlier work
P-gp and BCRP = tested on: P-gp and BCRP; parameters: method as in ref 17−20; settings: ref 17−20; cited from earlier work
[18] = cited from earlier work
[19] = human, human plasma, read-out: fu,plasma% / %Unbound (converted)
[20] = plasma, human, 5 μM, read-out: fu,plasma% / %Unbound (converted)
[21] = Sprague-Dawley, rat, rat plasma

T3 sequence (P00533 25-1210 L858R): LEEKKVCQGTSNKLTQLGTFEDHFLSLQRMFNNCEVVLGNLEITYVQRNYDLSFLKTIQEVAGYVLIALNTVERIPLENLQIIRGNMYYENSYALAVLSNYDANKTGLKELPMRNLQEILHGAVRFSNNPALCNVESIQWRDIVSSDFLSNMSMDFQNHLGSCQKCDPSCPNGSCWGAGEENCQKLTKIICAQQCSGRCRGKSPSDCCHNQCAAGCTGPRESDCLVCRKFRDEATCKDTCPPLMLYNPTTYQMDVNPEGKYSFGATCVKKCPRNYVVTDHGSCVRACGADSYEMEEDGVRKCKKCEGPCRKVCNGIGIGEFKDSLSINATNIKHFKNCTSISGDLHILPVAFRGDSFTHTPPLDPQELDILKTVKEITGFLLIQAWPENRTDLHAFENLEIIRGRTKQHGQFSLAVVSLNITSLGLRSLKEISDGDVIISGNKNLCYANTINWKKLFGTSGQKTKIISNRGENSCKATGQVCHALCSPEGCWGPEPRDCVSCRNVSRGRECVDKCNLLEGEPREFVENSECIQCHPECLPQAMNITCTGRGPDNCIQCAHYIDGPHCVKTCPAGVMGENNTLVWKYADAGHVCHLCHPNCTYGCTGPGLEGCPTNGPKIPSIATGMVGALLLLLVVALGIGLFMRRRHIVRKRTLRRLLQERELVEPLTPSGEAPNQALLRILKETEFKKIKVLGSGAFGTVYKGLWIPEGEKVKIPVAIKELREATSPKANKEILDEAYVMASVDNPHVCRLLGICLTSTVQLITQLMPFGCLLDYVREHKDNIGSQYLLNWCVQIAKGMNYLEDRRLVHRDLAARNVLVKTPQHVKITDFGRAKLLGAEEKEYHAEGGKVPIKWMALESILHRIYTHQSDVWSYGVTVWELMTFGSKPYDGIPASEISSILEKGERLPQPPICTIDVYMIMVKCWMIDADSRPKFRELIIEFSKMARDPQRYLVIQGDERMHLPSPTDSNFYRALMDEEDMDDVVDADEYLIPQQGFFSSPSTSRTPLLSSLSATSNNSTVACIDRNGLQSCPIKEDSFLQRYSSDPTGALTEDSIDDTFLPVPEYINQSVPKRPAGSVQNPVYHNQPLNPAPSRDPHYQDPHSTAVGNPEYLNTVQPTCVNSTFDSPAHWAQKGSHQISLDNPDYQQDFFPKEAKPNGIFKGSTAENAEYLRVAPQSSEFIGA
T1 sequence (P00533 25-1210): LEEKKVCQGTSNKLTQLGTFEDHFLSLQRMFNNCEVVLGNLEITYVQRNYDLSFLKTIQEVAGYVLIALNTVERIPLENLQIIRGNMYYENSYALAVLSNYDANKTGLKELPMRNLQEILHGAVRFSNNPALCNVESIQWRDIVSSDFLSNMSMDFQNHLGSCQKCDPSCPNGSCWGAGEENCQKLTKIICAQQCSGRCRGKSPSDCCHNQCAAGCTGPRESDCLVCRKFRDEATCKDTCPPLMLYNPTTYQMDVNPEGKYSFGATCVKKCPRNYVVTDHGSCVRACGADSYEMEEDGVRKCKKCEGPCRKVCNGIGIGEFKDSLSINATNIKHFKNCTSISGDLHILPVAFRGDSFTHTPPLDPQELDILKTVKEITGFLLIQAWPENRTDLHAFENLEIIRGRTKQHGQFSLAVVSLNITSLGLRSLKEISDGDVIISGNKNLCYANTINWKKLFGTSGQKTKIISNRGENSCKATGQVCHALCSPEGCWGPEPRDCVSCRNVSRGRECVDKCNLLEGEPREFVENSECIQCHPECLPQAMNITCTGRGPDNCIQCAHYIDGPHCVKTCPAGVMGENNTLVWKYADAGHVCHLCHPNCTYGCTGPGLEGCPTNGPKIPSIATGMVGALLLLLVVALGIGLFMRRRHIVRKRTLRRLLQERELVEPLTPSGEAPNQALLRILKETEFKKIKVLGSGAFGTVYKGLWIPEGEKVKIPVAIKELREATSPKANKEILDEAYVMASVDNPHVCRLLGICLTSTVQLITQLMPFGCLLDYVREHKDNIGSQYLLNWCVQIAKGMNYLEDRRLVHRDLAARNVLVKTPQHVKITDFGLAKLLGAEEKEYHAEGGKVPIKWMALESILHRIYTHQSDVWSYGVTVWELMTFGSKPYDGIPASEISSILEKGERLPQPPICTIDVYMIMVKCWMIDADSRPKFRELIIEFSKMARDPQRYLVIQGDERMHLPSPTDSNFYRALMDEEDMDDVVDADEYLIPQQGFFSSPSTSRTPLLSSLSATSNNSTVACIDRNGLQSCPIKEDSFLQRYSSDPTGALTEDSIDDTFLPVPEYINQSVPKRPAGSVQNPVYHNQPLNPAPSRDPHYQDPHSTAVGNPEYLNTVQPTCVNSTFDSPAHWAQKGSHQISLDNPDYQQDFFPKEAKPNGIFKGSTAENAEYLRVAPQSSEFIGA
T2 sequence (P00533 with tags, fused parts or gaps DEL746-750): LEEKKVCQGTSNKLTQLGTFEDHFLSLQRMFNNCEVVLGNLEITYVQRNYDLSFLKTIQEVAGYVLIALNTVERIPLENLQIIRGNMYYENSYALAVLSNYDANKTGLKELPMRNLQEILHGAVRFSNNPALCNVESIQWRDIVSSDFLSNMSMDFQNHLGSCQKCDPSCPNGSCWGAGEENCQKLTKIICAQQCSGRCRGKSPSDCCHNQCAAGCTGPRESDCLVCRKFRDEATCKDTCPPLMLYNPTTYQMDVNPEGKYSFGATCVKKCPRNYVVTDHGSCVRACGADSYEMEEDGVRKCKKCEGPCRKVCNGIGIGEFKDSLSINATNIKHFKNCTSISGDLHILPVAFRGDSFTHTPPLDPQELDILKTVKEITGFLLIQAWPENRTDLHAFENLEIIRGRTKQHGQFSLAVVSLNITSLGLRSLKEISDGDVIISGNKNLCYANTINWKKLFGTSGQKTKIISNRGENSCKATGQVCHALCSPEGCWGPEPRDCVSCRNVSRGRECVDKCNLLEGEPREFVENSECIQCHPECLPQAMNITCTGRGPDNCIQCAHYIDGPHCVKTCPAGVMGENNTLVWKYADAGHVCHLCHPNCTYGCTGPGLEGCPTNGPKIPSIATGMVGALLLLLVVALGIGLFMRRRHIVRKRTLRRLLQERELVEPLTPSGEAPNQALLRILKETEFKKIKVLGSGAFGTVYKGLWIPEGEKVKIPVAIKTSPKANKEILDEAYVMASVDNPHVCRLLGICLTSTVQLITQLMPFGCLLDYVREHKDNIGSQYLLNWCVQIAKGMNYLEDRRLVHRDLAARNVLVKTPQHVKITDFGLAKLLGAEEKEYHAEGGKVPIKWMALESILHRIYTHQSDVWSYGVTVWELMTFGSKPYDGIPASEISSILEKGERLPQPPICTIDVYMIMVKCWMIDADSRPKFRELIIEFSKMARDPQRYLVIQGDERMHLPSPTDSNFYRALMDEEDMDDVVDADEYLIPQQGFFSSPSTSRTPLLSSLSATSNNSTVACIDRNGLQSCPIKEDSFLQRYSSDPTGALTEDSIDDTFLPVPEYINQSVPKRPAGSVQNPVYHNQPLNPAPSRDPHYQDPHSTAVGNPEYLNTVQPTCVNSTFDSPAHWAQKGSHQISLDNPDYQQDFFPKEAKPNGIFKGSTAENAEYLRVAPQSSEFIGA

Compound: COc1cc2ncnc(Nc3ccc(F)c(Cl)c3)c2cc1OCCON1CCOCC1 [Compound 6, N-(3-Chloro-4-fluorophenyl)-7-methoxy-6-(2-(morpholinooxy)ethoxy)quinazolin-4-amine]
- Kd (EGFRwt [1]): 0.6 nM
- Kd (EGFR del E746_A750): 0.3 nM
- IC50 (EGFRwt [2]): 5 nM
- IC50 [3]: 4.2 nM
- IC50 [4]: 88 nM
- logD at 2 h, 1 µM [5]: 3.9
- solubility kinetic at 2 h (Solubility assay): 1 µM (≈ 0.449 µg/mL)
- Remaining Percentage ([6]; +Cofactors, 15 min): 49.30%
- Remaining Percentage ([6]; +Cofactors, 30 min): 28.74%
- Remaining Percentage ([6]; +Cofactors, 45 min): 20.85%
- Remaining Percentage ([6]; +Cofactors, 60 min): 14.00%
- Remaining Percentage ([6]; -Cofactors, 60 min): 89.19%
- half-life at 1 h, 1 µM ([6]; human, liver microsomes, read-out: LM t1/2): 21.6 min
- microsomal CLint at 1 h, 1 µM ([6]; human, liver microsomes, read-out: LMClint): 64 µL/min/mg
- half-life at 1 h, 1 µM ([7]; Sprague-Dawley, rat, liver microsomes, read-out: LM t1/2): 19.5 min
- microsomal CLint at 1 h, 1 µM ([7]; Sprague-Dawley, rat, liver microsomes, read-out: LMClint): 71 µL/min/mg
- Remaining Percentage ([7]; +Cofactors, 15 min): 50.62%
- Remaining Percentage ([7]; +Cofactors, 30 min): 25.81%
- Remaining Percentage ([7]; +Cofactors, 45 min): 17.98%
- Remaining Percentage ([7]; +Cofactors, 60 min): 11.88%
- Remaining Percentage ([7]; -Cofactors, 60 min): 109.68%
- Remaining Percentages (Plasma stability [8]; 15 min): 98.26%
- Remaining Percentages (Plasma stability [8]; 30 min): 102.87%
- Remaining Percentages (Plasma stability [8]; 60 min): 101.74%
- Remaining Percentages (Plasma stability [8]; 120 min): 97.90%
- t1/2 (Plasma stability [8]): ∞
- Remaining Percentages (Plasma stability [9]; 15 min): 100.23%
- Remaining Percentages (Plasma stability [9]; 30 min): 99.35%
- Remaining Percentages (Plasma stability [9]; 60 min): 99.28%
- Remaining Percentages (Plasma stability [9]; 120 min): 104.21%
- t1/2 (Plasma stability [9]): ∞
- efflux ratio at 2 h, 5 µM (Caco-2 permeability; Caco-2): 1.9
- efflux ratio at 2 h, 5 μM (Caco-2 permeability; Caco-2): 1.91
- recovery at 2 h, 5 μM (Caco-2 permeability; read-out: Recovery% (AP-BL)): 53.8%
- recovery at 2 h, 5 μM (Caco-2 permeability; read-out: Recovery% (BL-AP)): 60.3%
- Papp A→B at 2 h, 5 µM (Caco-2 permeability; Caco-2, 5 μM, 2 h): 5.6 ×10⁻⁶ cm/s
- Papp A→B at 2 h, 5 μM (Caco-2 permeability; Caco-2, 5 μM, 2 h): 5.59 ×10⁻⁶ cm/s
- Papp B→A at 2 h, 5 µM (Caco-2 permeability; Caco-2, 5 μM, 2 h): 10.7 ×10⁻⁶ cm/s
- Papp B→A at 2 h, 5 μM (Caco-2 permeability; Caco-2, 5 μM, 2 h): 10.7 ×10⁻⁶ cm/s
- enhancement in permeability compared with 1 (Caco-2 cells): 14 fold
- recovery at 2 h, 1 μM (MDCKII-MDR1 permeability; read-out: Recovery% (AP-BL)): 51.6%
- recovery at 2 h, 1 μM (MDCKII-MDR1 permeability; read-out: Recovery% (BL-AP)): 66.4%
- increase in permeability compared to 1 (MDCKII-MDR1 cells): roughly 4 fold
- efflux ratio at 2 h, 1 µM (MDR1): 2
- efflux ratio at 2 h, 1 μM (MDR1): 1.99
- Papp A→B at 2 h, 1 µM (MDR1; 1 μM, 2 h): 4.2 ×10⁻⁶ cm/s
- Papp A→B at 2 h, 1 μM (MDR1; 1 μM, 2 h): 4.19 ×10⁻⁶ cm/s
- Papp B→A at 2 h, 1 µM (MDR1; 1 μM, 2 h): 8.3 ×10⁻⁶ cm/s
- Papp B→A at 2 h, 1 μM (MDR1; 1 μM, 2 h): 8.26 ×10⁻⁶ cm/s
- recovery at 6 h, 5 μM ([10]; human, human plasma): 101%
- remaining at 6 h, 5 μM ([10]; human, human plasma): 99.5%
- fraction unbound at 6 h, 5 μM [10, 19]: 0.0512
- fraction unbound at 6 h, 5 μM [10, 20]: 0.0512
- Kd (EGFRL858R [11]; L858R): 0.8 nM
- binding and biochemical inhibition of activating mutant bearing EGFR (EGFRL858R [11]; in words, Tables S1 and S3): single-digit nanomolar
- IC50 (EGFRL858R [12]): < 1 nM

Compound: COc1cc2ncnc(Nc3ccc(F)c(Cl)c3)c2cc1OCCCN1CCOCC1 [Gefitinib (1), Gefitinib, reference compound]
- logD at 2 h, 1 µM [5]: 3.7
- solubility kinetic at 2 h (Solubility assay): 4 µM (≈ 1.79 µg/mL)
- Remaining Percentage ([6]; +Cofactors, 15 min): 39.75%
- Remaining Percentage ([6]; +Cofactors, 30 min): 19.60%
- Remaining Percentage ([6]; +Cofactors, 45 min): 12.23%
- Remaining Percentage ([6]; +Cofactors, 60 min): 8.14%
- Remaining Percentage ([6]; -Cofactors, 60 min): 100.00%
- Remaining Percentage ([7]; +Cofactors, 15 min): 63.13%
- Remaining Percentage ([7]; +Cofactors, 30 min): 37.48%
- Remaining Percentage ([7]; +Cofactors, 45 min): 25.25%
- Remaining Percentage ([7]; +Cofactors, 60 min): 19.26%
- Remaining Percentage ([7]; -Cofactors, 60 min): 115.38%
- Remaining Percentages ([13]; 15 min): 97.55%
- Remaining Percentages ([13]; 30 min): 94.76%
- Remaining Percentages ([13]; 60 min): 73.38%
- Remaining Percentages ([13]; 90 min): 50.47%
- Remaining Percentages ([13]; 120 min): 39.53%
- half-life at 2 h, 1 µM ([13]; human, hepatocytes, read-out: HEP t1/2): 83.5 min
- Remaining Percentages ([14]; 15 min): 66.86%
- Remaining Percentages ([14]; 30 min): 59.92%
- Remaining Percentages ([14]; 60 min): 39.44%
- Remaining Percentages ([14]; 90 min): 21.69%
- Remaining Percentages ([14]; 120 min): 13.94%
- Remaining Percentages (Plasma stability [8]; 15 min): 103.40%
- Remaining Percentages (Plasma stability [8]; 30 min): 103.92%
- Remaining Percentages (Plasma stability [8]; 60 min): 101.33%
- Remaining Percentages (Plasma stability [8]; 120 min): 104.45%
- t1/2 (Plasma stability [8]): ∞
- Remaining Percentages (Plasma stability [9]; 15 min): 100.11%
- Remaining Percentages (Plasma stability [9]; 30 min): 98.28%
- Remaining Percentages (Plasma stability [9]; 60 min): 95.04%
- Remaining Percentages (Plasma stability [9]; 120 min): 93.66%
- t1/2 (Plasma stability [9]): ∞
- fraction unbound at 6 h, 5 μM ([10]; Sprague-Dawley, rat, plasma, 5 μM, read-out: fu,plasma% / %Unbound): 0.0249
- recovery at 6 h, 5 μM [10, 21]: 105%
- remaining at 6 h, 5 μM [10, 21]: 105%
- fraction unbound at 6 h, 5 μM ([10]; Sprague-Dawley, rat, rat plasma, read-out: %Bound (converted)): 0.0249
- recovery at 6 h, 5 μM ([10]; human, human plasma): 106%
- remaining at 6 h, 5 μM ([10]; human, human plasma): 98.8%
- fraction unbound at 6 h, 5 μM [10, 19]: 0.0766
- fraction unbound at 6 h, 5 μM [10, 20]: 0.0766
- recovery at 6 h, 5 μM ([15]; CD-1, mouse, mouse plasma): 99.4%
- remaining at 6 h, 5 μM ([15]; CD-1, mouse, mouse plasma): 98%
- fraction unbound at 6 h, 5 μM ([15]; CD-1, mouse, mouse plasma, read-out: %Bound (converted)): 0.0781
- fraction unbound at 6 h, 5 μM ([15]; CD-1, plasma, mouse, 5 μM, read-out: fu,plasma% / %Unbound): 0.0781
- recovery at 6 h, 5 μM ([16]; Sprague-Dawley (SD), rat brain homogenate): 99.7%
- fraction unbound at 6 h, 5 μM ([16]; Sprague-Dawley, brain homogenate, read-out: fu,brain% / %Unboundbrain): 0.006
- remaining at 6 h, 5 μM ([16]; Sprague-Dawley, rat brain homogenate): 105%
- fraction unbound at 6 h, 5 μM ([16]; Sprague-Dawley, rat brain homogenate, read-out: %Boundbrain (converted)): 0.006
- Kp,uu (AUC0−16h) [17]: 0.0092
- efflux status against common efflux transporters (P-gp and BCRP): P-gp and BCRP Substrate

Compound: hydroxylamine
- pKa [18]: 5.9
